Results published in the supplement of paper PMC11451515.

Tests used:
Details in all cases: 48 h
SEM cells [1] = experiment: AUC of viability dose-response curve (% viability x log10 dose units); higher = less sensitive
In short: (§1)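 Seeding of medium-adapted leukemia cells was at 500 or 1000 cells/well in 1536-well plates, followed by 48 h at 37°C with library compounds in DMSO at 11 threefold doses from 47 μM to 0.79 nM. CellTiter-Glo One luminescence was normalised per plate to DMSO and cell-free wells and fitted as a four-parameter log-logistic function of log10 dose. Area under the curve was integrated by trapezoidal rule, with curves exceeding full viability scaled and curves failing quality control removed.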

NOMO1 [2] = experiment: as above
In short: as §1

P12-Ichikawa [3] = experiment: as above
In short: as §1

SEM cells [4] = experiment: cell viability relative to DMSO control; higher = less cytotoxic
In short: (§2)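 NOMO1, SEM and P12-Ichikawa leukemia cells spent at least four passages adapting to each medium before use. They were seeded at 500 cells/well (NOMO1, SEM) or 1000 cells/well (P12-Ichikawa) in 5 μl in 1536-well plates and pin-dosed with library compounds in DMSO at 11 threefold steps from 47 μM down to 0.79 nM. After 48 h at 37°C, CellTiter-Glo One luminescence was read. Viability is reported as a percentage of the DMSO wells on each plate, with cell-free wells as background.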

NOMO1 [5] = experiment: as above
In short: as §2

P12-Ichikawa [6] = experiment: as above
In short: as §2

COc1cccc([C@@H](C)NCCCc2ccccc2Cl)c1
AUC of viability dose-response curve
Details	NOMO1 [2]	P12-Ichikawa [3]	SEM cells [1]
HPLM + 10% dialyzed FBS	461	440	463
RPMI 5 mM glucose + 10% FBS	437	435	436
RPMI 5 mM glucose + 10% dialyzed FBS	429	432	472

cell viability [%]
Details	NOMO1 [5]	P12-Ichikawa [6]	SEM cells [4]
HPLM + 10% dialyzed FBS, 0.000781 µM	83	93.8	88.5
HPLM + 10% dialyzed FBS, 0.00234 µM	104	98	90.3
HPLM + 10% dialyzed FBS, 0.00702 µM	83.2	89.9	95.2
HPLM + 10% dialyzed FBS, 0.0211 µM	111	93.3	105
HPLM + 10% dialyzed FBS, 0.0632 µM	91.5	97.5	106
HPLM + 10% dialyzed FBS, 0.19 µM	113	99.9	95.8
HPLM + 10% dialyzed FBS, 0.569 µM	95.6	94.4	81.8
HPLM + 10% dialyzed FBS, 1.71 µM	110	92.7	97.6
HPLM + 10% dialyzed FBS, 5.12 µM	103	99.3	107
HPLM + 10% dialyzed FBS, 15.4 µM	95.9	99.2	96.3
HPLM + 10% dialyzed FBS, 46.1 µM	110	106	101
RPMI 5 mM glucose + 10% FBS, 0.000781 µM	84.4	95	82.6
RPMI 5 mM glucose + 10% FBS, 0.00234 µM	86.1	94.2	100
RPMI 5 mM glucose + 10% FBS, 0.00702 µM	87.2	94.3	79.9
RPMI 5 mM glucose + 10% FBS, 0.0211 µM	97.5	85.9	100
RPMI 5 mM glucose + 10% FBS, 0.0632 µM	93.9	96.9	94
RPMI 5 mM glucose + 10% FBS, 0.19 µM	88	91.9	94.9
RPMI 5 mM glucose + 10% FBS, 0.569 µM	94.7	94.1	84.2
RPMI 5 mM glucose + 10% FBS, 1.71 µM	86.1	92.8	78.7
RPMI 5 mM glucose + 10% FBS, 5.12 µM	94.8	90.6	97.4
RPMI 5 mM glucose + 10% FBS, 15.4 µM	94.6	94.9	100
RPMI 5 mM glucose + 10% FBS, 46.1 µM	101	103	93.5
RPMI 5 mM glucose + 10% dialyzed FBS, 0.000781 µM	86.2	83.1	81.2
RPMI 5 mM glucose + 10% dialyzed FBS, 0.00234 µM	100	87.5	112
RPMI 5 mM glucose + 10% dialyzed FBS, 0.00702 µM	92.3	85.3	92
RPMI 5 mM glucose + 10% dialyzed FBS, 0.0211 µM	84.4	88.1	101
RPMI 5 mM glucose + 10% dialyzed FBS, 0.0632 µM	100	91.3	94
RPMI 5 mM glucose + 10% dialyzed FBS, 0.19 µM	101	90.7	114
RPMI 5 mM glucose + 10% dialyzed FBS, 0.569 µM	87.9	87.4	97.2
RPMI 5 mM glucose + 10% dialyzed FBS, 1.71 µM	90	91.4	95.1
RPMI 5 mM glucose + 10% dialyzed FBS, 5.12 µM	111	95.2	98.6
RPMI 5 mM glucose + 10% dialyzed FBS, 15.4 µM	106	98.1	108
RPMI 5 mM glucose + 10% dialyzed FBS, 46.1 µM	104	99.8	99.6

COc1cc(OC)c(OC)cc1C=O
AUC of viability dose-response curve
Details	NOMO1 [2]	P12-Ichikawa [3]	SEM cells [1]
HPLM + 10% dialyzed FBS	467	455	439
RPMI 5 mM glucose + 10% FBS	474	440	450
RPMI 5 mM glucose + 10% dialyzed FBS	469	429	460

cell viability [%], SEM cells [4]
Details	HPLM + 10% dialyzed FBS	RPMI 5 mM glucose + 10% dialyzed FBS
0.000781 µM	98	113
0.00234 µM	111	96.5
0.00702 µM	111	130
0.0211 µM	109	144
0.0632 µM	108	148
0.19 µM	113	146
0.569 µM	88.7	94
1.71 µM	58.6	54
5.12 µM	122	126
15.4 µM	133	162
46.1 µM	139	130
